Source: publication PMC4016822 (Molecular bioSystems, 2014)
Entries after “also recorded” stand apart in the source; their conditions may differ.

Tests used:
[1] = mouse, in vivo
[2] = system: H460 NSCLC human xenograft; assay: H460 NSCLC human xenograft model, tumor growth; format: in vivo, NOD/SCID mice; details: for median tumor volume: day 24, i.p. daily; for median tumor volume / tumor weight smaller than vehicle: losartan 50 mg/kg, astemizole 10 mg/kg; for tumor weight smaller than vehicle: last day of study, i.p. daily, p<0.01
[3] = system: non-cancer WI38 fibroblast cell line; assay: MTT proliferation assay in WI38 fibroblasts; format: cell-based; details: for effect on WI38 proliferation: compared with the NSCLC lines
[4] = system: NSCLC cancer cell lines H1299, A459, H460; assay: MTT proliferation assay, NSCLC cell panel; format: cell-based, Human; details: for EC50: Homo sapiens
H460 = assay: MTT proliferation assay in H460 cells; format: cell-based, Human; details: 3 days
[5] = system: H460 NSCLC human xenograft; assay: Histopathology of resected tumors, mitotic index; format: in vivo, NOD/SCID mice

| Compound | animal's body weight [1] | median tumor volume [2] | tumor weight smaller than vehicle [2] | effect on WI38 proliferation [3] | EC50 [4] | also measured |
| --- | --- | --- | --- | --- | --- | --- |
| COc1ccc(CCN2CCC(Nc3nc4ccccc4n3Cc3ccc(F)cc3)CC2)cc1 [Astemizole] | no significant alteration | 2,810 mm^3 | 15% | – | – | number of mice with tumors that weighed less than 3.2 g ([2]; astemizole group n = 9, smallest vehicle tumor 3.2 g): Three |
| C=C(c1ccc(C(=O)O)cc1)c1cc2c(cc1C)C(C)(C)CCC2(C)C [Bexarotene] | – | – | – | weaker effect on WI38 proliferation | ~50 µM | – |
| Cc1nc(Nc2ncc(C(=O)Nc3c(C)cccc3Cl)s2)cc(N2CCN(CCO)CC2)n1 [Dasatinib] | – | – | – | – | – | EC50 ([3]; WI38, MTT, 3 days): sub-micromolar |
| CN1C[C@H](C(=O)N[C@]2(C)O[C@@]3(O)[C@@H]4CCCN4C(=O)[C@H](Cc4ccccc4)N3C2=O)C=C2c3cccc4[nH]cc(c34)C[C@H]21 [Ergotamine] | – | – | – | significantly less effect on WI38 | – | EC50 (H460): 26 ± 1 µM |
| CS(=O)(=O)CCNCc1ccc(-c2ccc3ncnc(Nc4ccc(OCc5cccc(F)c5)c(Cl)c4)c3c2)o1 [Lapatinib] | – | – | – | – | 30 to 40 µM | – |
| CCCCc1nc(Cl)c(CO)n1Cc1ccc(-c2ccccc2-c2nn[nH]n2)cc1 [Losartan] | no significant alteration | 2,463 mm^3 | 50% | – | – | G2M arrest in the cell cycle ([5]; histopathology of resected tumors): significant propensity to cause G2M arrest; also recorded: induced more significant G2M arrest; mitotic index (MI) ([5]; ratio of mitotic to non-mitotic cells in tumor tissue, vehicle 7): 18; cytotoxicity ([4]; concentrations up to 100 μM): very little cytotoxicity; number of mice with tumors that weigh less than 2.5 g ([2]; losartan group n = 10, none of the vehicle): Four |
